One substance from US12281335B2, “Methods and compositions for delivery of viral vectors across the blood-brain barrier” (priority 2017, dated 2025) can be followed below.

“Also recorded” adds a separate entry of the source. Ends that are not written are not given here.

The subject of data set [1] is HEK293 cells or Huh7 cells. Description: In vitro transduction assay, AAV8/luc with peptides. Type of data set: cell-based, human. Particulars: 10000 vg AAV8/luc incubated with peptides 2 h at 4° C.; both cell lines; 48 h; vs AAV8 only. As for the experimental part:
In vitro transduction assay. At least 4-5 h prior to AAV transduction, cells were seeded in 48-well plates with a density of 1E+05 cells each well. Cells were infected with 1E+04 vector genomes (vg) of AAV8/luc virus per cell and harvested after 48 h. Luciferase activity was measured following manufacturer's instruction (Promega, Madison, WI).
The complex of AAV8 and peptides influences AAV8 transduction in vitro and in vivo. To identify the potential and functional peptides that enhanced AAV8 transduction, we screened several reported peptides as shown in Table 5 and Table 6. First, we tested the cytotoxicity of peptides at different concentrations on cells. […] After that, we performed the transduction assay in vitro. We incubated the 10000 vg AAV8/luc and peptides for 2 h at 4° C., and then applied the mixture to HEK293 cells or Huh7 cells. After 48 h, the cell lysate was collected for luciferase analysis.

For the next data set, the target named is T1, mouse TfR1 (Mus musculus, UniProt Q62351).
T1 construct: expressed in transfected cells; host or cells: CHO-TRVB cells (devoid of endogenous TfR1)
T1 sequence (Q62351 whole entry): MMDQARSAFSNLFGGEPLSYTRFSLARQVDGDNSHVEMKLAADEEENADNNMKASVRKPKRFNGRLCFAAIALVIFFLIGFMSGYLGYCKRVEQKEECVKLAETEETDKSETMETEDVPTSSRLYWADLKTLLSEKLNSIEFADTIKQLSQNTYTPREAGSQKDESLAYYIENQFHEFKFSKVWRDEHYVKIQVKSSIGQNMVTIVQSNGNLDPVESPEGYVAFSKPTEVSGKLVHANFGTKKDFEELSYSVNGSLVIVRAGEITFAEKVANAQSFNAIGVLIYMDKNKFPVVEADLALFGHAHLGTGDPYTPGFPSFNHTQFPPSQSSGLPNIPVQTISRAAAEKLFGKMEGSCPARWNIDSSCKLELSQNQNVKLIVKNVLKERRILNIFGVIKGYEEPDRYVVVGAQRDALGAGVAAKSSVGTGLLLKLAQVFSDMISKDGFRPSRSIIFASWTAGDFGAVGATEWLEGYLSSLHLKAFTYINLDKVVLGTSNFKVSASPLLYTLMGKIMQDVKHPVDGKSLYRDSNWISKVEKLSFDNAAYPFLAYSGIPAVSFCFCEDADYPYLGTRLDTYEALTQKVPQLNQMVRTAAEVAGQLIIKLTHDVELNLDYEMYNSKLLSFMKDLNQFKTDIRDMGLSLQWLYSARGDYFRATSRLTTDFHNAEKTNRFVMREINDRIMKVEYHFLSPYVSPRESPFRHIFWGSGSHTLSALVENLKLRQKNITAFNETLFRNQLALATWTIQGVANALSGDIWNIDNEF
Nature of the data set: Immunofluorescence assay on CHO-TRVB cells. In kind it is binding. As to conditions: 5-FAM-THR. As for the experimental part: Immunofluorescence. Plasmids mCherry-TFR-20 and mCherry-mTfR-20 were separately transfected into the 50-70% confluent CHO-TRVB cells grown on glass coverslips using lipofectamine 3000 reagent (Invitrogen, USA). After 48 h post-transfection, the coverslips were washed and incubated with 1 nM 5-FAM-THR at 37° C. for 1 h, then cells were acid-washed with 0.2 M glycine/HCl, pH 2.2, and fixed in 4% paraformaldehyde for 30 min at 4° C. Finally, DAPI was used at a 1:5,000 dilution for 5 min at RT. Coverslips were mounted and imaged on the Olympus IX-83 fluorescence microscope.

Data set [2] concerns C57BL/6 mice. Nature of the data set: In vivo luciferase imaging after retro-orbital injection of AAV8/luc with peptides. Details: species or system mouse.
Procedure: (§1) Animal study. […] Mice were administered with AAV8/Luc incubated with peptides via retro-orbital injection. Luciferase expression was imaged at the indicated time points using a Xenogen IVIS Lumina (Caliper Lifesciences, Waltham, MA) following intraperitoneal injection of D-luciferin substrate (Nanolight Pinetop, AZ). Bioluminescent images were analyzed using Living Image (PerkinElmer, Waltham, MA). At various time points after injection, blood was collected from the retro-orbital plexus, and the viral titers were tested by qPCR.
For data set [3], the system named is C57BL/6 mice. Nature of the data set: Quantitation of luciferase expression in tissues. In kind it is in vivo, mouse. The protocol:
Quantitation of luciferase expression in tissues. Animals utilized for imaging studies were sacrificed after one-week post imaging work, and the tissues of the heart, liver, spleen, skeletal muscle and brain were collected, and were minced and homogenized in passive lysis buffer. Then the lysates were centrifuged at 10,000 rpm for 5 minutes to remove cellular debris. Supernatant was transferred to 96-well plates for luciferase activity analysis as described above. Total protein concentration in tissue lysates was measured using the Bradford assay (Bio-Rad Laboratories, Philadelphia, PA).

Data set [4] relates to C57BL/6 mice. Nature of the data set: Measurement of AAV genome copy number in tissue. Type of data set: in vivo, mouse. The protocol: Measurement of AAV genome copy number in tissue. Total gDNA from different minced tissues was isolated with the DNeasy blood & tissue kit (Qiagen, USA). Luciferase gene was measured by qPCR assay. Mouse-lamin gene served as an internal control.

In the next data set the test system is Huh7 or HEK293 cells. Nature of the data set: Neutralization assay (Nab titer). In kind it is cell-based, human. As to conditions: THR at different concentrations. As for the experimental part:
Neutralization assay. Huh7 or HEK293 cells were seeded in 48-well plates with a density of 5E+04 cells each well. The complex of AAV8/luc and different concentrations of THR was incubated at 4° C. for 2 h, then, two-fold dilutions of the mouse AAV8 sera were incubated with 1E+04vg of AAV8/luc virus or the complex of AAV8/luc and THR per cell for 1 h at 37° C. The final mixture was added into cells and incubated at 37° C. for 48 h. Cells were lysed with passive lysis buffer (Promega, Madison, WI) and luciferase activity was measured. Nab titers were defined as the highest dilution for which luciferase activity was 50% lower than serum-free controls.

The test system of the next data set is Huh7 cells. Nature of the data set: AAV8 binding assay. In kind it is cell-based, human. As to conditions: 4° C., 1 h; genome copy number normalized to GAPDH. As for the experimental part:
AAV8 binding assay. The complex of AAV8/luc and THR or human apo-transferrin protein (Sigma, 616395, USA) was incubated at 4° C. for 2 h, 10000 vg AAV8/luc virus alone or the complex was added into Huh7 cells at a cell density of 4E+05 per well for 1 h at 4° C., and then washed with DPBS 3 times. Finally, genome DNA (gDNA) was extracted from the cells with the DNeasy blood & tissue kit (Qiagen, USA) and was quantified by qPCR with luciferase primers and reference GAPDH primers.

For data set [5], the system named is human transferrin binding to AAV8 virions. Nature of the data set: AAV8 competitive binding assay. Particulars: pre-incubation with AAV8, then human transferrin; pull down with transferrin antibody, qPCR. The protocol: AAV8 competitive binding assay. For THR competitive binding analysis, 10 ul of Protein G resin (Thermo, USA) per system was incubated with 1 ug of human transferrin antibody or goat IgG antibody control at 4° C. overnight. […] After that, the mixture was added to the complex of protein G resin and transferrin antibody and incubated at 4° C. overnight. Finally, the complex was stringently washed three times with cold DPBS. DNA from the complex was extracted and applied for qPCR to determine AAV genome copy number per cell using luc specific primers.
To investigate whether THR also binds to the same location of AAV8 virions as human serum proteins, we performed a competitive assay. […] The transferrin antibody was used to pull down transferrin bound AAV8 virions and AAV8 gene copy number was measured by qPCR.
(In general: Real-time PCR tracks product formation cycle by cycle.)

Data set [6] in a line: AAV9 brain transduction with THR after systemic administration. Type of data set: in vivo.
The subject of data set [7] is C57BL/6 mice. Particulars: 1E+11 vg each mouse, intravenous; 5 min to 48 h; vs AAV8/luc.
Procedure: as §1

Regarding THRPPMWSPVWP-NH2 [THR], the “AAV8 transduction (luciferase)” value in data set [1] is reported as “significantly enhanced AAV8 transduction; also recorded: the most significant increase of AAV8 transduction”. In addition, the “interaction with mouse TfR1” value at mouse TfR1 was “could interact with mouse TfR1”. In addition, in the data set on C57BL/6 mice [2] (0.1 mM peptide + 5E+10 vg AAV8/luc, 7th day), the “AAV8 transduction in the whole body, especially brain (imaging)” value is “significantly increased AAV8 transduction overall; also recorded: significantly enhances AAV8 transduction in vivo, especially in the brain”. In the data set with C57BL/6 mice [2] (0.1 mM peptides + 5E+10 vg AAV8/luc, retro-orbital vein, 7th day), the “transgene expression in the liver (imaging)” value is on record as “higher”. The “AAV8 transduction in whole body and brain (imaging), high dose” value in the data set with C57BL/6 mice [2] (1E+11 vg each mouse, AAV8-0.1 mM THR) was “enhanced the AAV8 transduction in both the whole body and the brain”. Besides, the “AAV8 liver transduction (imaging), THR mixed just before injection” value in the data set with C57BL/6 mice [2] (AAV8/0.1 mM THR, no pre-incubation) is given as “blocked AAV8 liver transduction”. In the data set with C57BL/6 mice [2] (different concentrations of THR + 5E+10 particles AAV8/luc), the “luciferase imaging signal, dose dependence” value was “stronger imaging signals; also recorded: enhances the AAV8 transduction in vivo in a dose-dependent manner”. Further, in the data set on C57BL/6 mice [3] (0.1 mM peptides + 5E+10 vg AAV8/luc), the “AAV8 brain transduction (luc expression and genome number)” value is recorded as “increased AAV8 transduction in the brain”. The “luciferase expression and virus distribution in the brain, THR mixed just before injection” value with C57BL/6 mice [3] (AAV8/0.1 mM THR, no pre-incubation, vs AAV8) was “did not observe a significant difference”. The “AAV genome copy number in the brain” value in the data set on C57BL/6 mice [4] (0.1 mM peptides + 5E+10 vg AAV8/luc, vs AAV8 only) was “much higher”. In addition, the “gene copy number in liver, brain and spleen” value with C57BL/6 mice [4] (three groups with different THR concentrations + 5E+10 particles AAV8/luc) was “significantly higher enhancement than the control group; also recorded: more vector genome copy number in the brain”. Further, the “AAV8/luc neutralization titer (Nab titer)” value in the data set on Huh7 or HEK293 cells is listed as “did not interfere with the AAV8/luc neutralization titer; also recorded: does not interfere with the AAV8 biology”. Moreover, the “AAV8 virions binding to the Huh7 cells surface” value in the data set on Huh7 cells is given as “dramatically increased AAV8 virions binding; also recorded: enhanced the binding ability of AAV8 dose dependently”. Moreover, in [5], the “inhibition of transferrin binding to AAV8” value is “competes with human transferrin binding to AAV8”. For the same substance, the “AAV9 brain transduction after systemic administration” value in data set [6] is reported as “failed to enhance AAV9 brain transduction”. Further, the “blood clearance of AAV8” value in the data set with C57BL/6 mice [7] is listed as “decreasing the AAV8 clearance in the blood”.
